{"source": "patent US7268152B2", "about": "“Glucocorticoid mimetics, methods of making them, pharmaceutical compositions, and uses thereof” (Boehringer Ingelheim Pharmaceuticals, Inc., priority 2002, dated 2007)"}
{"target": "T1, human glucocorticoid receptor (GR) complex (Homo sapiens, UniProt P04150)", "T1 construct": "made in house; host or cells: insect expression system (baculovirus lysate)", "T1 sequence (P04150 1-777)": "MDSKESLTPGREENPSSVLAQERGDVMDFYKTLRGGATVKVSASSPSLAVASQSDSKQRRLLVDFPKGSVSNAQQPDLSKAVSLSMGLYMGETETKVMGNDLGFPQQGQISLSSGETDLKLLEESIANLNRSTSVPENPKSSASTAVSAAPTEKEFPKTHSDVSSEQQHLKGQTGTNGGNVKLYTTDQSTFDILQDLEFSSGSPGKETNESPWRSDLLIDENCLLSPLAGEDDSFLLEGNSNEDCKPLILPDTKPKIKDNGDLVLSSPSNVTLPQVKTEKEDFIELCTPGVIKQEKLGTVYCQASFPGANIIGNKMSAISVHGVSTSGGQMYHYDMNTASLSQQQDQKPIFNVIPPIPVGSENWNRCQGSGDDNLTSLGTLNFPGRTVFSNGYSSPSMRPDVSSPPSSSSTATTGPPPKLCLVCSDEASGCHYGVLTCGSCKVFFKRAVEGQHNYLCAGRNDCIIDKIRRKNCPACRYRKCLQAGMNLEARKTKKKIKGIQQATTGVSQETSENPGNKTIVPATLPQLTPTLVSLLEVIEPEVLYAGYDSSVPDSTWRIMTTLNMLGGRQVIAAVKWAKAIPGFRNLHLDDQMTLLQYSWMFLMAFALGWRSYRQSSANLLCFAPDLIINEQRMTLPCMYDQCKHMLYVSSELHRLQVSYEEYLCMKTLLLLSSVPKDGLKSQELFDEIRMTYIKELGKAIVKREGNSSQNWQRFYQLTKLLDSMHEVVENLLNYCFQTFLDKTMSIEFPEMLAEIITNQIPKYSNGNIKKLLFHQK", "assay": "Glucocorticoid receptor competitive binding assay (fluorescence polarization)", "details": "competition with TAMRA-labeled dexamethasone", "procedure": "Compounds of the invention were evaluated for binding to the steroid receptor by a fluorescence polarization competitive binding assay. Detailed descriptions for preparation of recombinant glucocorticoid receptor (GR) complex used in the assay is described in U.S. provisional application No. 60/291,877, filed May 18, 2001, and incorporated herein by reference in its entirety. Preparation of the tetramethyl rhodamine (TAMRA)-labeled dexamethasone probe was accomplished using a standard literature procedure (M. Pons et al., J. Steroid Biochem., 1985, 22, pp. 267-273).\nA. Glucocorticoid Receptor Competitive Binding Assay\nStep 1. Characterization of the Fluorescent Probe\nThe wavelengths for maximum excitation and emission of the fluorescent probe should first be measured. An example of such a probe is rhodamine (TAMRA)-labeled dexamethasone.\nThe affinity of the probe for the steroid receptor was then determined in a titration experiment. The fluorescence polarization value of the probe in assay buffer was measured on an SLM-8100 fluorometer using the excitation and emission maximum values described above. Aliquots of expression vector lysate were added and fluorescence polarization was measured after each addition until no further change in polarization value was observed. Non-linear least squares regression analysis was used to calculate the dissociation constant of the probe from the polarization values obtained for lysate binding to the probe.\nStep 2. Screeningfor Inhibitors of Probe Binding\n(§1) This assay uses fluorescence polarization (FP) to quantitate the ability of test compounds to compete with tetramethyl rhodamine (TAMRA)-labeled dexamethasone for binding to a human glucocorticoid receptor (GR) complex prepared from an insect expression system. The assay buffer was: 10 mM TES, 50 mM KCl, 20 mM Na2MoO4.2H2O, 1.5 mM EDTA, 0.04% w/v CHAPS, 10% v/v glycerol, 1 mM dithiothreitol, pH 7.4. Test compounds were dissolved to 1 mM in neat DMSO and then further diluted to 10×assay concentration in assay buffer supplemented with 10% v/v DMSO. Test compounds were serially diluted at 10×assay concentrations in 10% DMSO-containing buffer in 96-well polypropylene plates. Binding reaction mixtures were prepared in 96-well black Dynex microtiter plates by sequential addition of the following assay components to each well: 15 μL of 10×test compound solution, 85 μL of GR-containing baculovirus lysate diluted 1:170 in assay buffer, and 50 μL of 15 nM TAMRA-labeled dexamethasone. Positive controls were reaction mixtures containing no test compound; negative controls (blanks) were reaction mixtures containing 0.7 μM to 2 μM dexamethasone. The binding reactions were incubated for 1 hour at room temperature and then read for fluorescence polarization in the LJL Analyst set to 550 nm excitation and 580 nm emission, with the Rhodamine 561 dichroic mirror installed. IC50 values were determined by iterative non-linear curve fitting of the FP signal data to a 4-parameter logistic equation.", "units": {"IC50": "nM"}}
{"smiles": "CC(C)(CC(O)(Cc1cc(F)cc(F)c1)C(F)(F)F)c1cc(F)ccc1O", "note": "(stereo not shown) [2-[3-(3,5-Difluorobenzyl)-4,4,4-trifluoro-3-hydroxy-1,1-dimethylbutyl]-4-fluorophenol]", "IC50": "≤ 100"}
{"smiles": "CC(C)(CC(O)(Cc1cc(C(F)(F)F)cc(Cl)c1F)C(F)(F)F)c1ccc(F)cc1", "note": "(stereo not shown) [2-(3-Chloro-2-fluoro-5-trifluoromethylbenzyl)-1,1,1-trifluoro-4-(4-fluorophenyl)-4-methylpentan-2-ol]", "IC50": "≤ 100"}
{"tested_on": "glucocorticoid receptor", "assay": "One or more of the above assays (GR binding and GR cell assays; not specified which)", "assay_type": "cell-based", "details": "in one or more of the above assays", "procedure": "as §1, with “Binding reaction mixtures were prepared in 96-well black Dynex microtiter plates by sequential addition of the following assay components to each well: 15 μL of 10×test compound solution, 85 μL of GR-containing baculovirus lysate diluted 1:170 in assay buffer, and 50 μL of 15 nM TAMRA-labeled dexamethasone.” left out, “The binding reactions were incubated for 1 hour at room temperature and then read for fluorescence polarization in the LJL Analyst set to 550 nm excitation and 580 nm emission, with the Rhodamine 561 dichroic mirror installed.” left out\nB. Glucocorticoid Receptor Cell Assays\n1. Induction of Aromatase in Fibroblasts (Cell Assay for Transactivation)\nDexamethasone, a synthetic ligand to the glucocorticoid receptor (GR), induces expression of aromatase in human foreskin fibroblast cells. The activity of aromatase is measured by the conversion of testosterone to estradiol in culture media.\nOn the day of the experiment, the media in the wells is replaced with fresh media. Cells are treated with test compounds to final concentrations of 10^−5 M to 10 ^−8 M, and testosterone to a final concentration of 300 ng/mL. Each well has a total volume of 100 μL. Samples are made in duplicates. Control wells include: (a) wells that receive testosterone only, and (b) wells that receive testosterone plus 2 μM of dexamethasone to provide maximum induction of aromatase. Plates are incubated at 37° C. overnight (15 to 18 hours), and supernatants are harvested at the end of incubation. […] The amount of estradiol is inversely proportional to the ELISA signals in each well. The extent of aromatase induction by test compounds is expressed as a relative percentage to dexamethasone. EC50 values of test compounds are derived by non-linear curve fitting.\n2. Inhibition of IL-6 Production in Fibroblasts (Cell Assay for Transrepression)\nHuman foreskin fibroblast cells produce IL-6 in response to stimulation by pro-inflammatory cytokine IL-1.\nOn the next day, media in the wells is replaced with fresh media. Cells are treated with IL-1 (rhIL-1α, R&D Systems Cat. No. 200-LA) to a final concentration of 1 ng/mL, and with test compounds to final concentrations of 10 ^−5 M to 10 ^−8 M, in a total volume of 200 μL per well. Samples are done in duplicates. […] Positive control wells receive IL-1 only and represent maximum (or 100%) amount of IL-6 production. Plates are incubated at 37° C. overnight (15 to 18 hours), and supernatants are harvested at the end of incubation. IL-6 levels in the supernatants are determined by the ELISA kits for IL-6 (MedSystems Diagnostics GmbH, Vienna, Austria, Cat. No. BMS213TEN) according to manufacture's instructions. The extent of inhibition of IL-6 by test compounds is expressed in percentage relative to positive controls. IC50 values of test compounds are derived by non-linear curve fitting.\nEvaluation of agonist or antagonist activity of compounds binding to the glucocorticoid receptor may be determined by any of the assays.\n3. Modulation of Tyrosine Aminotransferase (TAT) Induction in Rat Hepatoma Cells\nTesting of compounds for agonist or antagonist activity in induction of tyrosine aminotransferase (TAT) in rat hepatoma cells.\nH4-II-E-C3 cells were incubated overnight in 96 well plates (20,000 cells/100 μL/well) in MEM medium containing 10% heat inactivated FBS and 1% nonessential amino acids. On the next day, cells were stimulated with the indicated concentrations of dexamethasone or test compound (dissolved in DMSO, final DMSO concentration 0.2%) for 18 hours. Control cells were treated with 0.2% DMSO."}
{"smiles": "COc1ccc(F)cc1C(C)(C)CC(O)(Cc1cc(C)cc(C)c1C#N)C(F)(F)F", "note": "(stereo not shown) [2-[4-(5-Fluoro-2-methoxyphenyl)-2-hydroxy-4-methyl-2-trifluoromethylpentyl]-4,6-dimethylbenzonitrile]", "activity as agonists of the glucocorticoid receptor function": "activity as agonists"}
{"smiles": "Cc1cccc(C(C)(C)CC(O)(Cc2ccc(C#N)cc2Cl)C2CC2)c1", "note": "(stereo not shown) [3-Chloro-4-[2-cyclopropyl-2-hydroxy-4-methyl-4-(3-methylphenyl)pentyl]benzonitrile]", "activity as agonists of the glucocorticoid receptor function": "activity as agonists"}
{"smiles": "Cc1ccc(F)cc1C(C)(C)CC(O)(Cc1ccc(C#N)cc1Cl)C(F)(F)F", "note": "(stereo not shown) [3-Chloro-4-[4-(5-fluoro-2-methylphenyl)-2-hydroxy-4-methyl-2-trifluoromethylpentyl]benzonitrile]", "activity as agonists of the glucocorticoid receptor function": "activity as agonists"}
{"smiles": "COc1ccc(F)cc1C(C)(C)CC(O)(Cc1ccc(Cl)c(Cl)c1)C(F)(F)F", "note": "(stereo not shown) [2-(3,4-Dichlorobenzyl)-1,1,1-trifluoro-4-(5-fluoro-2-methoxyphenyl)-4-methylpentan-2-ol]", "activity as agonists of the glucocorticoid receptor function": "activity as agonists"}
{"smiles": "COc1ccc(F)cc1C(C)(C)CC(O)(Cc1ccc(C(C)=O)cc1Cl)C(F)(F)F", "note": "(stereo not shown) [1-{3-Chloro-4-[4-(5-fluoro-2-methoxyphenyl)-2-hydroxy-4-methyl-2-trifluoromethylpentyl]phenyl}ethanone]", "activity as agonists of the glucocorticoid receptor function": "activity as agonists"}
{"smiles": "Cc1cc(Br)cc(CC(O)(CC(C)(C)c2cc(F)ccc2O)C(F)(F)F)c1F", "note": "(stereo not shown) [2-[3-(5-Bromo-2-fluoro-3-methylbenzyl)-4,4,4-trifluoro-3-hydroxy-1,1-dimethylbutyl]-4-fluorophenol]", "activity as agonists of the glucocorticoid receptor function": "activity as agonists"}
{"smiles": "CC(C)(CC(O)(Cc1ccc(C#N)cc1Cl)C(F)(F)F)c1ccccc1C(F)(F)F", "note": "(stereo not shown) [3-Chloro-4-[2-hydroxy-4-methyl-2-trifluoromethyl-4-(2-trifluoromethylphenyl)pentyl]benzonitrile]", "activity as agonists of the glucocorticoid receptor function": "activity as agonists"}
{"smiles": "COc1ccc(F)cc1C(C)(C)CC(O)(Cc1ccc(/C(C)=N/O)cc1Cl)C(F)(F)F", "note": "(stereo not shown) [1-{3-Chloro-4-[4-(5-fluoro-2-methoxyphenyl)-2-hydroxy-4-methyl-2-trifluoromethylpentyl]phenyl}ethanone oxime]", "activity as agonists of the glucocorticoid receptor function": "activity as agonists"}
{"smiles": "COc1ccc(F)cc1C(C)(C)CC(O)(Cc1cc(Cl)cc(Cl)c1Cl)C(F)(F)F", "note": "(stereo not shown) [1,1,1-Trifluoro-4-(5-fluoro-2-methoxyphenyl)-4-methyl-2-(2,3,5-trichlorobenzyl)pentan-2-ol]", "activity as agonists of the glucocorticoid receptor function": "activity as agonists"}
{"smiles": "COc1ccc(F)cc1C(C)(C)CC(O)(Cc1cc(C)c(C#N)c(C)c1)C(F)(F)F", "note": "(stereo not shown) [4-[4-(5-Fluoro-2-methoxyphenyl)-2-hydroxy-4-methyl-2-trifluoromethylpentyl]-2,6-dimethylbenzonitrile]", "activity as agonists of the glucocorticoid receptor function": "activity as agonists"}
{"smiles": "COc1cc(F)ccc1C(C)(C)CC(O)(Cc1ccc(C#N)cc1Cl)C(F)(F)F", "note": "(stereo not shown) [3-Chloro-4-[4-(4-fluoro-2-methoxyphenyl)-2-hydroxy-4-methyl-2-trifluoromethylpentyl]benzonitrile]", "activity as agonists of the glucocorticoid receptor function": "activity as agonists"}
{"smiles": "COc1ccc(F)cc1C1(CC(O)(Cc2ccc(C#N)cc2Cl)C(F)(F)F)CC1", "note": "(stereo not shown) [3-Chloro-4-{3,3,3-trifluoro-2-[1-(5-fluoro-2-methoxyphenyl)cyclopropylmethyl]-hydroxypropyl}benzonitrile]", "activity as agonists of the glucocorticoid receptor function": "activity as agonists"}
{"smiles": "CC(C)(CC(O)(Cc1ccc(C#N)cc1Cl)C(F)(F)F)c1ccc2ccccc2c1", "note": "(stereo not shown) [3-Chloro-4-(2-hydroxy-4-methyl-4-naphthalen-2-yl-2-trifluoromethylpentyl)benzonitrile]", "activity as agonists of the glucocorticoid receptor function": "activity as agonists"}
{"smiles": "CC(C)(CC(O)(Cc1ccc(C#N)cc1Cl)C(F)(F)F)c1cccc(F)c1", "note": "(stereo not shown) [3-Chloro-4-[4-(3-fluorophenyl)-2-hydroxy-4-methyl-2-trifluoromethylpentyl]benzonitrile]", "activity as agonists of the glucocorticoid receptor function": "activity as agonists"}
